Measured values: PMC7011955, “Synthesis and biological evaluation of certain hydrazonoindolin-2-one derivatives as new potent anti-proliferative agents” (Journal of Enzyme Inhibition and Medicinal Chemistry, 2018)
“Also recorded” adds a separate entry of the source. Read-outs that look alike come from different tables or passages of the source.

Legend:
[1] = system: lung cancer A-549 cell line; assay: CellTiter-Glo Luminescent cell viability assay, anti-proliferative activity, A-549; assay type: cell-based, human; conditions: Homo sapiens; for inhibition at 30 µM: A549, 30 µM single concentration, read-out: Growth inhibition % A-549
Method: (§1) The anti-proliferative activity of the title compounds 3a-e, 5a-e, 7a-c, and 10a-l towards cancer cell lines, normal cell lines, and multidrug-resistant lung cancer NCI-H69AR cell line was determined using CellTiter-Glo™ Luminescent cell viability assay according to the previously published procedures[14]^,[15].
(§2) The cancer cell growth inhibitory activity of the synthesised 25 compounds 3a-e, 5a-e, 7a-c, and 10a-l was evaluated in vitro towards three human cancer cell lines, namely lung cancer A-549, human colon cancer HT-29, and breast cancer ZR-75 cell lines using CellTiter-Glo™ Luminescent cell viability assay. Sunitinib was included in this assay as a reference drug.
(§3) The prepared hydrazonoindolin-2-ones were first evaluated at preliminary anti-proliferative assay against the three cancer cell lines in quadruplicate at a single concentration of 30 µM. The data presented as percentage growth inhibition (GI%) caused by the test compounds (Table 1).

[2] = system: NCI-H69AR cell line (expresses ABCC1 efflux pump); assay: Growth inhibition of multidrug resistant lung cancer cell line; assay type: cell-based
Method: as §1
The anti-proliferative activity of compounds 7b and 10e was evaluated towards multidrug resistant lung cancer cell line (NCI-H69AR), which expresses the ABCC1 efflux pump protein. […] Furthermore, the H69AR cells manifested a lesser degree of resistance to the reference drug, Sunitinib (1.9-fold less sensitive).

Breast MCF-10A cells = assay: Cell growth inhibition, non-tumorigenic MCF-10A; assay type: cell-based; conditions: Homo sapiens, maximum 25 µM, quadruplicate
Method: as §1
(§4) The cell growth inhibitory activity of compounds 7b and 10e was examined towards three non-tumorigenic cell lines to estimate their selectivity for tumor cells. A-549 human non-small cell lung cancer (NSCLC) cell line was included in the assay for comparison. […] IEC-6 cells derived from rat intestine show morphologic and karyotypic features of normal intestinal epithelial cells. Fibroblasts derived from embryonic tissue from mice (Swiss-3t3) are both non-tumorigenic and contact inhibited. Compounds 7b and 10e were tested quadruplicate at maximum concentrations of 25 µM, with subsequent 10 serially diluted concentrations.

[3] = system: Fibroblast Swiss-3t3 cells; assay: Cell growth inhibition, non-tumorigenic Swiss-3t3; assay type: cell-based, mice; conditions: Mus musculus, maximum 25 µM, quadruplicate
Method: as §1, §4

A-549 cells [4] = assay: Cell cycle distribution by DNA content; assay type: cell-based, human
Method: (§5) Cell cycle effects of the synthesised compounds 7b and 10e were determined adopting the reported procedures[14]^,[15].
(§6) In this study, cancer cells derived from lung adenocarcinoma (A-549) were used to evaluate the effects of compounds 7b and 10e on various aspects of the cell cycle progression. Both immunofluorescent imaging of phosphorylated Rb protein and total DNA content of each cell were explored to determine the activity of compounds 7b and 10e over a range of concentrations less than 100 nM to 50 µM (Figures 3–5).
Figure 3. Effects on number and cell cycle distribution. A-549 cells were treated with dose curve. Compound 7b (left) or 10e (right). Cell number per cell cycle was determined by DNA content by DAPI fluorescent labeling and imaging cytometry following 48 h treatment.

Intestine IEC-6 cells = assay: Cell growth inhibition, non-tumorigenic IEC-6; assay type: cell-based; conditions: Rattus norvegicus, maximum 25 µM, quadruplicate
Method: as §1, §4

A-549 cells [5] = assay: Reduction in total cell number, DAPI labeling and imaging cytometry; assay type: cell-based; conditions: Homo sapiens, A549
Method: as §5, §6
Figure 3. Effects on number and cell cycle distribution. A-549 cells were treated with dose curve. Compound 7b (left) or 10e (right). […]

[6] = system: IEC-6, MCF-10A, Swiss-3t3 vs A-549 cell lines; assay: Mean tumor selectivity index, non-tumorigenic lines vs A-549; assay type: cell-based; conditions: non-tumorigenic IEC-6, MCF-10A
From the text: as §4

[7] = system: breast cancer ZR-75 cell line; assay: CellTiter-Glo Luminescent cell viability assay, anti-proliferative activity, ZR-75; assay type: cell-based, human; conditions: Homo sapiens, ZR75, mean ± SD of four separate experiments
[8] = system: colon cancer HT-29 cell line; assay: CellTiter-Glo Luminescent cell viability assay, anti-proliferative activity, HT-29; assay type: cell-based, human; conditions: Homo sapiens, HT-29; 30 µM single concentration, quadruplicate; read-out: Growth inhibition % HT-29
Method: as §1, §2, §3

[9] = system: colon cancer HT-29 cell line; assay: as above; assay type: cell-based; conditions: Homo sapiens, mean ± SD of four separate experiments
[10] = system: phosphorylated retinoblastoma (Rb) protein in A-549 cells; assay: Immunofluorescent imaging of phosphorylated Rb protein; assay type: cell-based, human; conditions: for levels of phosphorylated Rb protein: A-549, less than 100 nM to 50 µM; for IC50: Homo sapiens, A549
Method: as §5, §6

[11] = system: A-549, ZR-75 and HT-29 cell lines; assay: Average anti-proliferative activity over the three cancer cell lines; assay type: cell-based, human; conditions: average over A-549, ZR-75, HT-29; for Average growth inhibition % / inhibition at 30 µM: 30 µM; for inhibition at 30 µM / IC50: Homo sapiens; for inhibition at 30 µM: read-out: Average growth inhibition %
Method: as §1, §2, §3

[12] = system: breast cancer ZR-75 cell line; assay: CellTiter-Glo Luminescent cell viability assay, anti-proliferative activity, ZR-75; assay type: cell-based; conditions: Homo sapiens, ZR75; 30 µM single concentration, quadruplicate; read-out: Growth inhibition % ZR-75
Method: as §1, §2, §3

[13] = A549, mean ± SD of four separate experiments, read-out: IC50 A-549
[14] = A549, selectivity assay, maximum 25 µM, quadruplicate, read-out: IC50 NSCLC A-549
[15] = A549, sensitive line in comparison with resistant NCI-H69AR, read-out: IC50 Sensitive A-549
[16] = A-549, 24 h treatment, read-out: IC50 for reductions in the total cell number, 24 h
[17] = A-549, 48 h treatment, read-out: IC50 for reductions in the total cell number, 48 h
[18] = A-549, 24 h treatment, read-out: IC50 for reduction in Rb phosphorylation, 24 h
[19] = A-549, 48 h treatment, read-out: IC50 for reduction in Rb phosphorylation, 48 h

SMILES | IC50 [1, 13] | IC50 [1, 14] | IC50 [1, 15] | inhibition at 30 µM ([1]; quadruplicate) | IC50 [2] | IC50 (Breast MCF-10A cells) | IC50 [3] | melting point | Cell cycle effects (A-549 cells [4]) | IC50 (Intestine IEC-6 cells) | IC50 (A-549 cells [5]; [16]) | Mean tumor selectivity [6] | IC50 [7] | inhibition at 30 µM [8] | IC50 [9] | IC50 [10, 18] | Average growth inhibition % [11] | inhibition at 30 µM [11] | IC50 [11] | inhibition at 30 µM [12] | also measured
O=C1Nc2ccc(Cl)cc2C1=NN=Cc1ccn[nH]1 [Compound 7b, 3-(((1H-pyrazol-5-yl)methylene)hydrazono)-5-chloroindolin-2-one] | 2.29 ± 0.21 µM | 3.84 ± 0.67 µM | 3.8 ± 0.67 µM | 91.5 ± 1.3% | 16 µM | 3.42 ± 0.45 µM | 6.85 ± 0.76 µM | > 300 °C | decrease in the percentage of cells in the G1 phase of the cell cycle with corresponding increase in the G2/M-phases; also recorded: G1 decreased and G2/M-phases increased | 8.7 ± 4.32 µM | 12.7 ± 13.6 µM | 1.6 | 1.37 ± 0.23 µM | 94.9 ± 1.8% | 2.75 ± 0.31 µM | 12.1 ± 0.6 µM | 89.6% | > 80% | 2.14 µM | 82.3 ± 15.2% | IC50 (A-549 cells [5]; [17]): 8.08 ± 0.95 µM; levels of phosphorylated Rb protein [10]: significantly reduced in a dose-dependent manner; IC50 [10, 19]: 13.6 ± 0.6 µM
O=C1Nc2ccc(Cl)cc2C1=NNc1nc(-c2ccccc2)cs1 [Compound 10e, 5-Chloro-3–(2-(4-phenylthiazol-2-yl)hydrazono)indolin-2-one] | 4.79 ± 0.45 µM | 4.13 ± 0.61 µM | 4.1 ± 0.61 µM | 80.4 ± 6% | 16 µM | 5.37 ± 0.61 µM | 8.51 ± 1.01 µM | 292 to 294 °C | increase in the percentage of cells in the G1 phase of the cell cycle with corresponding decreases in S- and G2/M phases; also recorded: G1 increased and G2/M-phases decreased | 8.98 ± 1.25 µM | 7.38 ± 1.04 µM | 1.8 | 1.95 ± 1.03 µM | 85.7 ± 10.2% | 7.25 ± 0.83 µM | 7.59 ± 0.38 µM | 85.1% | > 80% | 4.66 µM | 89.3 ± 7.2% | IC50 (A-549 cells [5]; [17]): 7.27 ± 1.15 µM; levels of phosphorylated Rb protein [10]: significantly reduced in a dose-dependent manner; IC50 [10, 19]: 12.5 ± 2.1 µM
O=C1Nc2ccc(Br)cc2C1=NNc1nc(-c2ccccc2)cs1 [Compound 10i, 5-Bromo-3–(2-(4-phenylthiazol-2-yl)hydrazono)indolin-2-one] | 6.13 ± 0.76 µM |  |  | 92.3 ± 6.2% |  |  |  | 285 to 287 °C |  |  |  |  | 1.96 ± 0.85 µM | 96.3 ± 5.9% | 8.26 ± 0.86 µM |  | 95.4% | > 80% | 5.45 µM | 97.5 ± 3.1% | 
Cc1ccc(-c2csc(NN=C3C(=O)Nc4ccc(Br)cc43)n2)cc1 [Compound 10j, 5-Bromo-3–(2-(4–(4-tolyl)thiazol-2-yl)hydrazono)indolin-2-one] | 12.8 ± 1.4 µM |  |  | 85.9 ± 9.1% |  |  |  | > 300 °C |  |  |  |  | 10.9 ± 2.81 µM | 90.1 ± 5.3% | 15.2 ± 1.1 µM |  | 83.0% | > 80% | 13 µM | 73.1 ± 3.5% | 
O=C1Nc2ccc(Br)cc2C1=NNc1nc(-c2ccc(Cl)cc2)cs1 [Compound 10k, 5-Bromo-3–(2-(4–(4-chlorophenyl)thiazol-2-yl)hydrazono)indolin-2-one] | 20.1 ± 3.81 µM |  |  | 72.4 ± 3.5% |  |  |  | > 300 °C |  |  |  |  | 3.61 µM | 66.8 ± 19.1% | 19.8 ± 1.63 µM |  |  | 63.3% | 14.5 µM | 50.6 ± 11.5% | 
CCN(CC)CCNC(=O)c1c(C)[nH]c(/C=C2\C(=O)Nc3ccc(F)cc32)c1C [Sunitinib, reference compound] | 10.1 ± 0.8 µM | 3.06 ± 0.9 µM | 3.1 ± 0.9 µM | 59.5 ± 2.3% | 5.8 ± 0.52 µM |  |  |  | G1 decreased and G2/M-phases increased |  |  | 1.4 |  | 85.7 ± 2.7% | 5.87 ± 0.3 µM | 3.18 ± 0.07 µM |  | 78.7% |  | 90.7 ± 4.5% | 
